The subject of one test is HIV-1 (IIIB) in MT-4 cells. The test can be described thus: MT-4 HIV assay. Type of test: cell-based. Particulars: Human immunodeficiency virus 1, MT4, 120 h. On the procedure: Compounds were tested in a high-throughput 384-well assay format for their ability to inhibit the replication of HIV-1 (IIIB) in MT-4 cells. Compounds were serially diluted (1:3) in DMSO on 384-well polypropylene plates and further diluted 200-fold into complete RPMI media (10% FBS, 1% P/S) using the Biotek Micro Flow and Agilent ECHO acoustic dispenser. Each plate contained up to 8 test compounds, with negative (No Drug Control) and 5 uM AZT positive controls. MT-4 cells were pre-infected with 10 uL of either RPMI (mock-infected) or a fresh 1:250 dilution of an HIV-1 (IIIB) concentrated virus stock. Infected and uninfected MT-4 cells were further diluted in complete RPMI media and added to each plate using a Micro Flow dispenser. After 5 days incubation in a humidified and temperature controlled incubator (37° C.), Cell Titer Glo (Promega) was added to the assay plates to quantify the amount of luciferase.
As a reminder, the EC50 is the concentration that produces a half-maximal response. `COC(=O)N[C@H](C(=O)N[C@@H](Cc1ccc(C#Cc2ccc(N3CC[N+]([O-])(C4COC4)CC3)nc2)cc1)[C@@H](O)CN(Cc1c(F)cc(-c2ccn(C(F)F)n2)cc1F)NC(=O)[C@@H](NC(=O)OC)C(C)(C)C(F)(F)F)C(C)(C)C(F)(F)F` [Example 54, 4-(5-((4-((2S,3S)-4-(1-(4-(1-(difluoromethyl)-1H-pyrazol-3-yl)-2,6-difluorobenzyl)-2-((S)-4,4,4-trifluoro-2-((methoxycarbonyl)amino)-3,3-dimethylbutanoyl)hydrazinyl)-3-hydroxy-2-((S)-4,4,4-trifluoro-2-((methoxycarbonyl)amino)-3,3-dimethylbutanamido)butyl)phenyl)ethynyl)pyridin-2-yl)-1-(oxetan-3-yl)piperazine 1-oxide] yielded an EC50 of 8.47 nM.

Compound `COC(=O)N[C@H](C(=O)N[C@@H](Cc1ccc(C#Cc2ccc(N3CC4(C)CN(C5COC5)CC(C)(C3)C4=O)nc2)cc1)[C@@H](O)CN(Cc1c(F)cc(-c2cnn(C(F)F)c2)cc1F)NC(=O)[C@@H](NC(=O)OC)C(C)(C)C(F)(F)F)C(C)(C)C(F)(F)F` [Example 62, Methyl ((5S,8S,9S,14S)-11-(4-(1-(difluoromethyl)-1H-pyrazol-4-yl)-2,6-difluorobenzyl)-8-(4-((6-(1,5-dimethyl-7-(oxetan-3-yl)-9-oxo-3,7-diazabicyclo[3.3.1]nonan-3-yl)pyridin-3-yl)ethynyl)benzyl)-16,16,16-trifluoro-9-hydroxy-15,15-dimethyl-3,6,13-trioxo-5-(1,1,1-trifluoro-2-methylpropan-2-yl)-2-oxa-4,7,11,12-tetraazahexadecan-14-yl)carbamate] gave an EC50 of 8.83 nM.

`COC(=O)N[C@H](C(=O)N[C@@H](Cc1ccc(C#Cc2ccc(N3CC4CC(C3)CN(C3COC3)C4)nc2)cc1)[C@@H](O)CN(Cc1c(F)cc(-c2cnn(C(F)F)c2)cc1F)NC(=O)[C@@H](NC(=O)OC)C(C)(C)C(F)(F)F)C(C)(C)C(F)(F)F` [Example 65, Methyl ((5S,8S,9S,14S)-11-(4-(1-(difluoromethyl)-1H-pyrazol-4-yl)-2,6-difluorobenzyl)-16,16,16-trifluoro-9-hydroxy-15,15-dimethyl-8-(4-((6-(7-(oxetan-3-yl)-3,7-diazabicyclo[3.3.1]nonan-3-yl)pyridin-3-yl)ethynyl)benzyl)-3,6,13-trioxo-5-(1,1,1-trifluoro-2-methylpropan-2-yl)-2-oxa-4,7,11,12-tetraazahexadecan-14-yl)carbamate] gave a concentration for a half-maximal effect (EC50) of 7.7 nM.

Staying with this test, now noted: Human immunodeficiency virus 1, MT4, 120 h; HIV-1 (IIIB), MT-4 cells, 5 days, Cell Titer Glo; read-out: EC50.
As to `COC(=O)N[C@H](C(=O)N[C@@H](Cc1ccc(C#Cc2ccc3nc(N4CC5CCC(C4)N5C4COC4)ccc3n2)cc1)[C@@H](O)CN(Cc1c(F)cc(-c2ccn(C(F)F)n2)cc1F)NC(=O)[C@@H](NC(=O)OC)C(C)(C)C(F)(F)F)C(C)(C)C(F)(F)F` [Example 47, Methyl ((5S,8S,9S,14S)-11-(4-(1-(difluoromethyl)-1H-pyrazol-3-yl)-2,6-difluorobenzyl)-16,16,16-trifluoro-9-hydroxy-15,15-dimethyl-8-(4-((6-(8-(oxetan-3-yl)-3,8-diazabicyclo[3.2.1]octan-3-yl)-1,5-naphthyridin-2-yl)ethynyl)benzyl)-3,6,13-trioxo-5-(1,1,1-trifluoro-2-methylpropan-2-yl)-2-oxa-4,7,11,12-tetraazahexadecan-14-yl)carbamate], the EC50 is 7.18 nM.

Consider `COC(=O)N[C@H](C(=O)N[C@@H](Cc1ccc(C#Cc2nc(N3CC4CCC(C3)N4C3COC3)nc(N3C[C@H]4CC[C@@H](C3)N4C3COC3)n2)cc1)[C@@H](O)CN(Cc1c(F)cc(-c2ccn(C(F)F)n2)cc1F)NC(=O)[C@@H](NC(=O)OC)C(C)(C)C(F)(F)F)C(C)(C)C(F)(F)F` [Example 49, Methyl ((5S,8S,9S,14S)-11-(4-(1-(difluoromethyl)-1H-pyrazol-3-yl)-2,6-difluorobenzyl)-16,16,16-trifluoro-9-hydroxy-15,15-dimethyl-8-(4-((4-((1R,5S)-8-(oxetan-3-yl)-3,8-diazabicyclo[3.2.1]octan-3-yl)-6-(8-(oxetan-3-yl)-3,8-diazabicyclo[3.2.1]octan-3-yl)-1,3,5-triazin-2-yl)ethynyl)benzyl)-3,6,13-trioxo-5-(1,1,1-trifluoro-2-methylpropan-2-yl)-2-oxa-4,7,11,12-tetraazahexadecan-14-yl)carbamate], for which the EC50 was 37.3 nM.

Regarding `COC(=O)N[C@H](C(=O)N[C@@H](Cc1ccc(C#Cc2ccc(N3CCN4CCOC[C@@H]4C3)nc2)cc1)[C@@H](O)CN(Cc1c(F)cc(-c2ccn(C(F)F)n2)cc1F)NC(=O)[C@@H](NC(=O)OC)C(C)(C)C(F)(F)F)C(C)(C)C(F)(F)F` [Example 55, Methyl ((5S,8S,9S,14S)-11-(4-(1-(difluoromethyl)-1H-pyrazol-3-yl)-2,6-difluorobenzyl)-16,16,16-trifluoro-8-(4-((6-((S)-hexahydropyrazino[2,1-c][1,4]oxazin-8(1H)-yl)pyridin-3-yl)ethynyl)benzyl)-9-hydroxy-15,15-dimethyl-3,6,13-trioxo-5-(1,1,1-trifluoro-2-methylpropan-2-yl)-2-oxa-4,7,11,12-tetraazahexadecan-14-yl)carbamate], the EC50 is 4.44 nM.

For `COC(=O)N[C@H](C(=O)N[C@@H](Cc1ccc(C#Cc2ccc(N3CC4CCC(C3)N4C(=O)[C@@H]3CCCO3)nc2)cc1)[C@@H](O)CN(Cc1c(F)cc(-c2cnc(F)c(F)c2)cc1F)NC(=O)[C@@H](NC(=O)OC)C(C)(C)C)C(C)(C)C` [Example 64, Methyl ((5S,8S,9S,14S)-5-(tert-butyl)-11-(4-(5,6-difluoropyridin-3-yl)-2,6-difluorobenzyl)-9-hydroxy-15,15-dimethyl-3,6,13-trioxo-8-(4-((6-(8-((S)-tetrahydrofuran-2-carbonyl)-3,8-diazabicyclo[3.2.1]octan-3-yl)pyridin-3-yl)ethynyl)benzyl)-2-oxa-4,7,11,12-tetraazahexadecan-14-yl)carbamate], the EC50 came to 5.4 nM.

Take `COC(=O)N[C@H](C(=O)N[C@@H](Cc1ccc(C#Cc2ccc(N3CC4CC(CN(c5ccccn5)C4)C3)nc2)cc1)[C@@H](O)CN(Cc1c(F)cc(-c2cnn(C(F)F)c2)cc1F)NC(=O)[C@@H](NC(=O)OC)C(C)(C)C(F)(F)F)C(C)(C)C(F)(F)F` [Example 66, Methyl ((5S,8S,9S,14S)-11-(4-(1-(difluoromethyl)-1H-pyrazol-4-yl)-2,6-difluorobenzyl)-16,16,16-trifluoro-9-hydroxy-15,15-dimethyl-3,6,13-trioxo-8-(4-((6-(7-(pyridin-2-yl)-3,7-diazabicyclo[3.3.1]nonan-3-yl)pyridin-3-yl)ethynyl)benzyl)-5-(1,1,1-trifluoro-2-methylpropan-2-yl)-2-oxa-4,7,11,12-tetraazahexadecan-14-yl)carbamate]: the EC50 is 14.5 nM.

For the compound `COC(=O)N[C@H](C(=O)NN(Cc1c(F)cc(-c2nnc(C3CC3)s2)cc1F)C[C@H](O)[C@H](Cc1ccc(C#Cc2ccc(N3CC4CCC(C3)N4C3COC3)nc2)cc1)NC(=O)[C@@H](NC(=O)OC)C(C)(C)C(F)(F)F)C(C)(C)C` [Example 76, Methyl ((5S,8S,9S,14S)-11-(4-(5-cyclopropyl-1,3,4-thiadiazol-2-yl)-2,6-difluorobenzyl)-9-hydroxy-15,15-dimethyl-8-(4-((6-(8-(oxetan-3-yl)-3,8-diazabicyclo[3.2.1]octan-3-yl)pyridin-3-yl)ethynyl)benzyl)-3,6,13-trioxo-5-(1,1,1-trifluoro-2-methylpropan-2-yl)-2-oxa-4,7,11,12-tetraazahexadecan-14-yl)carbamate], the EC50 turned out to be 3.53 nM.

With `COC(=O)N[C@H](C(=O)NN(Cc1c(F)cc(-c2cnn(C(F)F)c2)cc1F)C[C@H](O)[C@H](Cc1ccc(C#Cc2ccc(N3CC4CCC(C3)N4C3COC3)nc2)cc1)NC(=O)[C@@H](NC(=O)OC)C(C)(C)C(F)(F)F)C(C)(C)CF` [Example 80, Methyl ((5S,8S,9S,14S)-11-(4-(1-(difluoromethyl)-1H-pyrazol-4-yl)-2,6-difluorobenzyl)-16-fluoro-9-hydroxy-15,15-dimethyl-8-(4-((6-(8-(oxetan-3-yl)-3,8-diazabicyclo [3.2.1]octan-3-yl)pyridin-3-yl)ethynyl)benzyl)-3,6,13-trioxo-5-(1,1,1-trifluoro-2-methylpropan-2-yl)-2-oxa-4,7,11,12-tetraazahexadecan-14-yl)carbamate], the concentration giving a half-maximal response (EC50) came out at 3.13 nM.

As for `COC(=O)N[C@H](C(=O)N[C@@H](Cc1ccc(C#Cc2ccc(N3CC4CCC(C3)N4C3COC3)nc2)cc1)[C@@H](O)CN(Cc1c(F)cc(C2COC2)cc1F)NC(=O)[C@@H](NC(=O)OC)C(C)(C)C(F)(F)F)C(C)(C)C(F)(F)F` [Example 83, Methyl ((5S,8S,9S,14S)-11-(2,6-difluoro-4-(oxetan-3-yl)benzyl)-16,16,16-trifluoro-9-hydroxy-15,15-dimethyl-8-(4-((6-(8-(oxetan-3-yl)-3,8-diazabicyclo[3.2.1]octan-3-yl)pyridin-3-yl)ethynyl)benzyl)-3,6,13-trioxo-5-(1,1,1-trifluoro-2-methylpropan-2-yl)-2-oxa-4,7,11,12-tetraazahexadecan-14-yl)carbamate], the concentration giving a half-maximal response (EC50) worked out at 17.2 nM.

As for `COC(=O)N[C@H](C(=O)N[C@@H](Cc1ccc(C#Cc2ccc(N3CC4CCC(C3)N4C3COC3)nc2)cc1)[C@@H](O)CN(Cc1c(F)cc(-c2ccccn2)cc1F)NC(=O)[C@@H](NC(=O)OC)C(C)(C)C)C(C)(C)C` [Example 84, Methyl ((5S,8S,9S,14S)-5-(tert-butyl)-11-(2,6-difluoro-4-(pyridin-2-yl)benzyl)-9-hydroxy-15,15-dimethyl-8-(4-((6-(8-(oxetan-3-yl)-3,8-diazabicyclo[3.2.1]octan-3-yl)pyridin-3-yl)ethynyl)benzyl)-3,6,13-trioxo-2-oxa-4,7,11,12-tetraazahexadecan-14-yl)carbamate], the EC50 was 3.23 nM.

For the origin of these results see patent US10294234B2, “HIV inhibitor compounds” (priority 2017, dated 2019).
